This note sets out measurements from patent US7560466B2, “Methods of treating or preventing autoimmune diseases with 2,4-pyrimidinediamine compounds” (Rigel Pharmaceuticals, Inc., priority 2003, dated 2009).

Read-outs that look alike come from different tables or passages of the source. Bounds are passed on as bounds.

The test system of the experiment is cultured human mast cells (CHMC), IgE-induced degranulation. The experiment in a line: CHMC low cell density IgE activation: tryptase assay. In kind it is cell-based. The procedure:
Inhibition of degranulation was measured at both low and high cell density by quantifying the release of the granule specific factors tryptase, histamine and hexosaminidase. Inhibition of release and/or synthesis of lipid mediators was assessed by measuring the release of leukotriene LTC4 and inhibition of release and/or synthesis of cytokines was monitored by quantifying TNF-α, IL-6 and IL-13. Tryptase and hexosaminidase were quantified using fluorogenic substrates as described in their respective examples. […] The protocols of the various assays are provided below.
A second phase is performed to convert the expanded CD34-negative progenitor cells into differentiated mucosal mast cells. These mucosal cultured human mast cells (“CHMC”) are derived from CD34+ cells isolated from umbilical cord blood and treated to form a proliferated population of CD34-negative progenitor cells, as described above. […] Also, the cytokine composition of the medium was modified such that it contained SCF (200 ng/mL) and recombinant human IL-6 (200 ng/mL; Peprotech, Catalog No. 200-06 reconstituted to 100 ug/mL in sterile 10 mM acetic acid) (“CM/SCF/IL-6 medium”).
Pellet CHMC cells (980 rpm, 10 min) and resuspend in pre-warmed MT. Add 65 ul of cells to each 96-well plate. Depending on the degranulation activity for each particular CHMC donor, load 1000-1500 cells/well. Mix four times followed by a 1 hr incubation at 37° C. […] Stimulate cells by adding 25 ul of 6× anti-IgE solution to the appropriate plates. Add 25 ul MT to un-stimulated control wells. Mix twice following addition of the anti-IgE. Incubate at 37° C. for 30 minutes. […] Spin plates at 1000 rpm for 10 min to pellet cells. Transfer 25 ul of supernatant to a 96-well black bottom plate and add 100 ul of freshly diluted tryptase substrate solution to each well. Incubate plates at room temperature for 30 min.
In Table 1, all reported values are IC50s (in μM). […] In Table 1, all reported values are IC50s (in μM).

The mark [1] stands for this setting: low cell density CHMC, 8pt, read-out: LD Tryptase, CHMC, IgE, 8pt.
The mark [2] stands for this setting: low cell density CHMC, 3pt, read-out: LD Tryptase, CHMC, IgE, 3pt.
The mark [3] stands for this setting: Homo sapiens, Mast cell, low cell density CHMC, 8pt, read-out: LD Tryptase, CHMC, IgE, 8pt.
Setting [4] is: CHMC low cell density, 3pt, read-out: LD Tryptase, CHMC, IgE, 3pt.

Consider `CC1C(=O)Nc2cc(Nc3nc(Nc4cccc(O)c4)ncc3F)ccc2S1(=O)=O` (racemic) [Compound 284, racemic-5-Fluoro-N2-[3-hydoxyphenyl]-N4-(2-methyl-1,1,3-trioxo-2H,4H-benzo[1,4]thiazin-6-yl)-2,4-pyrimidinediamine], for which the IC50 under setting [1] was less than 10 µM. As to `CNC(=O)COc1cccc(Nc2ncc(F)c(Nc3ccc4c(c3)NC(=O)C(C)S4(=O)=O)n2)c1` (racemic) [Compound 285, racemic-5-Fluoro-N2-[3-(N-methylamino)carbonylmethyleneoxyphenyl]-N4-(2-methyl-1,1,3-trioxo-2H,4H-benzo[1,4]thiazin-6-yl)-2,4-pyrimidinediamine], the IC50 under setting [1] was less than 10 µM. Turning to `CC1Sc2ccc(Nc3nc(Cl)ncc3F)cc2NC1=O` (racemic) [Compound 314, racemic-N2-Chloro-5-fluoro-N4-(2-methyl-3-oxo-2H,4H-benzo[1,4]thiazin-6-yl)-4-pyrimidinea mine], the IC50 under setting [2] is less than 10 µM. `CC1C(=O)Nc2cc(Nc3nc(Cl)ncc3F)ccc2S1(=O)=O` (racemic) [Compound 317, racemic-N2-Chloro-5-fluoro-N4-(2-methyl-1,1,3-trioxo-2H,4H-benzo[1,4]thiazin-6-yl)-4-pyrimidinea mine]: the IC50 under setting [2] was greater than 10 µM.

With `C[C@H]1Oc2ccc(Nc3nc(Nc4cc5c6c(c4)c(CCO)cn6CCO5)ncc3F)cc2NC1=O` [Compound 205, (R)-5-Fluoro-N2-[6-(2-hydroxyethyl)-2,3-dihydropyrrolo[1,2,3-d,e]benzoxazin-8-yl]-N4-(2-methyl-3-oxo-2H,4H-benz[1,4]oxazin-6-yl)-2,4-pyrimidinediamine], under setting [1], the IC50 was less than 10 µM. For the compound `CC1(C)COc2ccc(Nc3nc(Nc4cc5c6c(c4)c(CCO)cn6CCO5)ncc3F)cc2N1` [Compound 206, N4-(3,4-Dihydro-3,3-dimethyl-2H,4H-benz[1,4]oxazin-6-yl)-5-fluoro-N2-[6-(2-hydroxyethyl)-2,3-dihydropyrrolo[1,2,3-d,e]benzoxazin-8-yl]-2,4-pyrimidinediamine], the IC50 under setting [1] was less than 10 µM.

With `O=C1COc2cc(Nc3nc(Nc4ccc(-c5ncco5)cc4)ncc3F)ccc2N1` [Compound 241], the IC50 under setting [3] was less than 10 µM. In the case of `CNC(=O)COc1cccc(Nc2ncc(F)c(Nc3ccc4c(c3)NC(=O)C(C)(C)S4(=O)=O)n2)c1` [Compound 275, N4-(2,2-Dimethyl-1,1,3-trioxo-4H-benzo[1,4]thiazin-6-yl)-5-fluoro-N2-[3-(N-methylamino)carbonylmethyleneoxyphenyl]-2,4-pyrimidinediamine], the IC50 under setting [1] was less than 10 µM.

As to `COc1ccc(Nc2ncc(F)c(Nc3ccc4c(c3)NC(=O)C(C)(C)S4(=O)=O)n2)cc1Cl` [Compound 276], the IC50 under setting [1] was less than 10 µM.

On to `CNC(=O)COc1cccc(Nc2ncc(F)c(Nc3ccc4c(c3)NC(=O)C(C)S4)n2)c1` (centres unmarked) [Compound 279, 5-Fluoro-N2-[3-(N-methylamino)carbonylmethyleneoxyphenyl]-N4-(2-methyl-3-oxo-2H,4H-benzo[1,4]thiazin-6-yl)-2,4-pyrimidinediamine], for which the IC50 under setting [1] was less than 10 µM. With `CC1(C)C(=O)Nc2cc(Nc3nc(Nc4cccc(O)c4)ncc3F)ccc2S1(=O)=O` [Compound 283, racemic-N4-(2,2-Dimethyl-1,1,3-trioxo-4H-benzo[1,4]thiazin-6-yl)-5-fluoro-N2-[3-hydoxyphenyl]-2,4-pyrimidinediamine], the IC50 under setting [1] was less than 10 µM. Regarding `COc1ccc(Nc2ncc(F)c(Nc3ccc4c(c3)NC(=O)C(C)(C)S4)n2)cc1Cl` [Compound 289], the IC50 under setting [1] was less than 10 µM. On to `CNC(=O)COc1cccc(Nc2ncc(F)c(Nc3ccc4c(c3)NC(=O)C(C)(C)S4)n2)c1` [Compound 294, N4-(2,2-Dimethyl-3-oxo-4H-benzo[1,4]thiazin-6-yl)-5-fluoro-N2-[3-(N-methylamino)carbonylmethyleneoxyphenyl]-2,4-pyrimidinediamine], for which the IC50 is, setting by setting: under setting [2], less than 10 µM; under setting [1], less than 10 µM. With `COc1ccc(Nc2ncc(F)c(Nc3ccc4c(c3)NC(=O)C(C)(C)S4)n2)cc1F` [Compound 299], the IC50 reads like this: under setting [2], less than 10 µM; under setting [1], less than 10 µM.

With `CNC(=O)COc1cccc(Nc2ncc(F)c(Nc3ccc4c(c3)NC(=O)CS4(=O)=O)n2)c1` [Compound 305, 5-Fluoro-N2-[3-(N-methylamino)carbonylmethyleneoxyphenyl]-N4-(1,1,3-trioxo-2H,4H-benzo[1,4]thiazin-6-yl)-2,4-pyrimidinediamine], the IC50 under setting [1] was less than 10 µM. With `COc1cc(Nc2ncc(F)c(Nc3ccc4c(c3)NC(=O)CS4(=O)=O)n2)cc(OC)c1OC` [Compound 306, 5-Fluoro-N2-(3,4,5-triimethoxylphenyl)-N4-(1,1,3-trioxo-2H,4H-benzo[1,4]thiazin-6-yl)-2,4-pyrimidinediamine], the IC50 under setting [1] is less than 10 µM.

In the case of `O=C1CSc2ccc(Nc3nc(Cl)ncc3F)cc2N1` [Compound 313, N2-Chloro-5-fluoro-N4-(3-oxo-2H,4H-benzo[1,4]thiazin-6-yl)-4-pyrimidinea mine], under setting [2], the IC50 is less than 10 µM. Turning to `O=C1CS(=O)(=O)c2ccc(Nc3nc(Cl)ncc3F)cc2N1` [Compound 315, N2-Chloro-5-fluoro-N4-(1,1,3-trioxo-2H,4H-benzo[1,4]thiazin-6-yl)-4-pyrimidinea mine], under setting [2], the IC50 was greater than 10 µM.

Regarding `CC1(C)Sc2ccc(Nc3nc(Cl)ncc3F)cc2NC1=O` [Compound 316, N2-Chloro-N4-(2,2,-dimethyl-3-oxo-4H-benzo[1,4]thiazin-6-yl)-5-fluoro-4-pyrimidinea mine], the IC50 under setting [2] was less than 10 µM. On to `CC1(C)C(=O)Nc2cc(Nc3nc(Cl)ncc3F)ccc2S1(=O)=O` [Compound 318, N2-Chloro-N4-(2,2-dimethyl-1,1,3-trioxo-4H-benzo[1,4]thiazin-6-yl)-5-fluoro-4-pyrimidinea mine], for which the IC50 under setting [2] is less than 10 µM. The same measure, in the same setting: to `CC1(C)COc2ccc(Nc3nc(Cl)ncc3F)cc2N1` [Compound 320, N2-Chloro-N4-(3,3-dimethyl-1,4-benzoxazin-6-yl)-5-fluoro-pyrimidinea mine] belongs less than 10 µM. On to `OC=C1C=C(Nc2ncc(F)c(Nc3ccc4c(c3)OCCO4)n2)CC(=CO)C1` [Compound 342], for which, under setting [3], the IC50 is less than 10 µM. As for `CNC(=O)n1ccc2ccc(Nc3ncc(F)c(Nc4ccc5c(c4)NC(=O)C(C)(C)O5)n3)cc21` [Compound 347, N4-(2,2-Dimethyl-3-oxo-4H-benz[1,4]oxazin-6-yl)-N2-[1-(N-methylaminocarbony)lindol-6-yl)-5-fluoro-2,4-pyrimidinediamine], under setting [2], the IC50 was less than 10 µM. As to `Cc1cc(C)cc(Nc2ncc(F)c(Nc3ccc4c(c3)OC(F)(F)C(F)(F)O4)n2)c1` [Compound 362, N2-(3,5-Dimethyphenyl)-5-fluoro-N4-[3,4-(tetrafluoroethylenedioxy)phenyl]-2,4-pyrimidinediamine], the IC50 under setting [4] was less than 10 µM and the IC50 (CHMC low cell density, 8pt, read-out: LD Tryptase, CHMC, IgE, 8pt) was greater than 10 µM.

For `Cc1cc(Nc2ncc(F)c(Nc3ccc4c(c3)OC(F)(F)C(F)(F)O4)n2)cc(C(F)(F)F)c1` [Compound 366, 5-Fluoro-N2-(3-methyl-5-trifluoromethyl)-N4-[3,4-(tetrafluoroethylenedioxy)phenyl]-2,4-pyrimidinediamine], the IC50 under setting [4] was less than 10 µM. On to `CN(c1ccc2c(c1)OCCO2)c1nc(NN)ncc1F` [Compound 533, N4-(3,4-Ethylenedioxyphenyl)-5-fluoro-N4-methyl-2-hydrazine-4-pyrimidinea mine], for which, under setting [4], the IC50 is greater than 10 µM.
